Data: the supplement of paper PMC10307832

Experiments:
Experiment in all cases: relative viability (nuclei count vs DMSO), 5 days (fraction); higher = more cells survive
OSI-027 + Palbociclib = compound: COc1cccc2cc(-c3nc([C@H]4CC[C@H](C(=O)O)CC4)n4ncnc(N)c34)[nH]c12 [OSI-027] + CC(=O)c1c(C)c2cnc(Nc3ccc(N4CCNCC4)cn3)nc2n(C2CCCC2)c1=O [Palbociclib] (partner 0.5 µM)
Method in brief: (§1)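 Relative viability is defined as nuclei in treated wells over nuclei in vehicle wells. Duplicate plates were run and medians reported. Lung cancer cell lines in 1536-well plates were dosed by pin tool one day after seeding, with one drug or with a fixed anchor-drug dose plus five library-drug doses (not always all listed) in √10 steps, and nuclei were counted after 5 days.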

OSI-027 + Olaparib = compound: COc1cccc2cc(-c3nc([C@H]4CC[C@H](C(=O)O)CC4)n4ncnc(N)c34)[nH]c12 [OSI-027] + O=C(c1cc(Cc2n[nH]c(=O)c3ccccc23)ccc1F)N1CCN(C(=O)C2CC2)CC1 [Olaparib] (partner 8 µM)
Method in brief: as §1

Alpelisib + Navitoclax = compound: Cc1nc(NC(=O)N2CCC[C@H]2C(N)=O)sc1-c1ccnc(C(C)(C)C(F)(F)F)c1 [Alpelisib] + CC1(C)CCC(c2ccc(Cl)cc2)=C(CN2CCN(c3ccc(C(=O)NS(=O)(=O)c4ccc(N[C@H](CCN5CCOCC5)CSc5ccccc5)c(S(=O)(=O)C(F)(F)F)c4)cc3)CC2)C1 [Navitoclax] (partner 0.5 µM)
Method in brief: as §1

Alpelisib + Pictilisib = compound: Cc1nc(NC(=O)N2CCC[C@H]2C(N)=O)sc1-c1ccnc(C(C)(C)C(F)(F)F)c1 [Alpelisib] + CS(=O)(=O)N1CCN(Cc2cc3nc(-c4cccc5[nH]ncc45)nc(N4CCOCC4)c3s2)CC1 [Pictilisib] (partner 1 µM)
Method in brief: as §1

Cell Line: A-427
- relative viability (OSI-027 + Palbociclib; first compound 0.01 µM): 0.538
- relative viability (OSI-027 + Palbociclib; first compound 0.03162 µM): 0.516
- relative viability (OSI-027 + Palbociclib; first compound 0.1 µM): 0.453
- relative viability (OSI-027 + Palbociclib; first compound 0.3162 µM): 0.414
- relative viability (OSI-027 + Palbociclib; first compound 1 µM): 0.386
- relative viability (OSI-027 + Olaparib; first compound 0.01 µM): 0.817
- relative viability (OSI-027 + Olaparib; first compound 0.03162 µM): 0.835
- relative viability (OSI-027 + Olaparib; first compound 0.1 µM): 0.643
- relative viability (OSI-027 + Olaparib; first compound 0.3162 µM): 0.593
- relative viability (OSI-027 + Olaparib; first compound 1 µM): 0.506
- relative viability (Alpelisib + Navitoclax; first compound 0.04 µM): 0.837
- relative viability (Alpelisib + Navitoclax; first compound 0.1265 µM): 0.884
- relative viability (Alpelisib + Navitoclax; first compound 0.4 µM): 0.997
- relative viability (Alpelisib + Navitoclax; first compound 1.265 µM): 0.874
- relative viability (Alpelisib + Navitoclax; first compound 4 µM): 0.884
- relative viability (Alpelisib + Pictilisib; first compound 0.04 µM): 0.694
- relative viability (Alpelisib + Pictilisib; first compound 0.1265 µM): 0.641
- relative viability (Alpelisib + Pictilisib; first compound 0.4 µM): 0.741
- relative viability (Alpelisib + Pictilisib; first compound 1.265 µM): 0.675
- relative viability (Alpelisib + Pictilisib; first compound 4 µM): 0.718

Cell Line: NCI-H1703
- relative viability (OSI-027 + Olaparib; first compound 0.01 µM): 0.424
- relative viability (OSI-027 + Olaparib; first compound 0.03162 µM): 0.552
- relative viability (OSI-027 + Olaparib; first compound 0.1 µM): 0.316
- relative viability (OSI-027 + Olaparib; first compound 0.3162 µM): 0.304
- relative viability (OSI-027 + Olaparib; first compound 1 µM): 0.19
- relative viability (Alpelisib + Navitoclax; first compound 0.04 µM): 1.01
- relative viability (Alpelisib + Navitoclax; first compound 0.1265 µM): 0.994
- relative viability (Alpelisib + Navitoclax; first compound 0.4 µM): 0.71
- relative viability (Alpelisib + Navitoclax; first compound 1.265 µM): 0.565
- relative viability (Alpelisib + Navitoclax; first compound 4 µM): 0.464
- relative viability (Alpelisib + Pictilisib; first compound 0.04 µM): 0.254
- relative viability (Alpelisib + Pictilisib; first compound 0.1265 µM): 0.249
- relative viability (Alpelisib + Pictilisib; first compound 0.4 µM): 0.227
- relative viability (Alpelisib + Pictilisib; first compound 1.265 µM): 0.235
- relative viability (Alpelisib + Pictilisib; first compound 4 µM): 0.26

Cell Line: HCC-366
- relative viability (OSI-027 + Palbociclib; first compound 0.01 µM): 0.465
- relative viability (OSI-027 + Palbociclib; first compound 0.03162 µM): 0.348
- relative viability (OSI-027 + Palbociclib; first compound 0.1 µM): 0.412
- relative viability (OSI-027 + Palbociclib; first compound 0.3162 µM): 0.309
- relative viability (OSI-027 + Palbociclib; first compound 1 µM): 0.1
- relative viability (OSI-027 + Olaparib; first compound 0.01 µM): 0.331
- relative viability (OSI-027 + Olaparib; first compound 0.03162 µM): 0.386
- relative viability (OSI-027 + Olaparib; first compound 0.1 µM): 0.417
- relative viability (OSI-027 + Olaparib; first compound 0.3162 µM): 0.386
- relative viability (OSI-027 + Olaparib; first compound 1 µM): 0.219
- relative viability (Alpelisib + Navitoclax; first compound 0.04 µM): 1.02
- relative viability (Alpelisib + Navitoclax; first compound 0.1265 µM): 1.08
- relative viability (Alpelisib + Navitoclax; first compound 0.4 µM): 1.05
- relative viability (Alpelisib + Navitoclax; first compound 1.265 µM): 0.681
- relative viability (Alpelisib + Navitoclax; first compound 4 µM): 0.334
- relative viability (Alpelisib + Pictilisib; first compound 0.04 µM): 0.151
- relative viability (Alpelisib + Pictilisib; first compound 0.1265 µM): 0.137
- relative viability (Alpelisib + Pictilisib; first compound 0.4 µM): 0.196
- relative viability (Alpelisib + Pictilisib; first compound 1.265 µM): 0.11
- relative viability (Alpelisib + Pictilisib; first compound 4 µM): 0.222

Cell Line: NCI-H661
- relative viability (OSI-027 + Palbociclib; first compound 0.01 µM): 0.375
- relative viability (OSI-027 + Palbociclib; first compound 0.03162 µM): 0.424
- relative viability (OSI-027 + Palbociclib; first compound 0.1 µM): 0.368
- relative viability (OSI-027 + Palbociclib; first compound 0.3162 µM): 0.347
- relative viability (OSI-027 + Palbociclib; first compound 1 µM): 0.301
- relative viability (OSI-027 + Olaparib; first compound 0.01 µM): 0.852
- relative viability (OSI-027 + Olaparib; first compound 0.03162 µM): 0.735
- relative viability (OSI-027 + Olaparib; first compound 0.1 µM): 0.748
- relative viability (OSI-027 + Olaparib; first compound 0.3162 µM): 0.712
- relative viability (OSI-027 + Olaparib; first compound 1 µM): 0.423
- relative viability (Alpelisib + Pictilisib; first compound 0.04 µM): 0.374
- relative viability (Alpelisib + Pictilisib; first compound 0.1265 µM): 0.367
- relative viability (Alpelisib + Pictilisib; first compound 0.4 µM): 0.475
- relative viability (Alpelisib + Pictilisib; first compound 1.265 µM): 0.506
- relative viability (Alpelisib + Pictilisib; first compound 4 µM): 0.346

Cell Line: NCI-H2126
- relative viability (OSI-027 + Palbociclib; first compound 0.01 µM): 0.362
- relative viability (OSI-027 + Palbociclib; first compound 0.03162 µM): 0.361
- relative viability (OSI-027 + Palbociclib; first compound 0.1 µM): 0.36
- relative viability (OSI-027 + Palbociclib; first compound 0.3162 µM): 0.34
- relative viability (OSI-027 + Palbociclib; first compound 1 µM): 0.347
- relative viability (OSI-027 + Olaparib; first compound 0.01 µM): 0.939
- relative viability (OSI-027 + Olaparib; first compound 0.03162 µM): 0.904
- relative viability (OSI-027 + Olaparib; first compound 0.1 µM): 0.879
- relative viability (OSI-027 + Olaparib; first compound 0.3162 µM): 0.835
- relative viability (OSI-027 + Olaparib; first compound 1 µM): 0.578
- relative viability (Alpelisib + Navitoclax; first compound 0.04 µM): 0.768
- relative viability (Alpelisib + Navitoclax; first compound 0.1265 µM): 0.865
- relative viability (Alpelisib + Navitoclax; first compound 0.4 µM): 0.816
- relative viability (Alpelisib + Navitoclax; first compound 1.265 µM): 0.618
- relative viability (Alpelisib + Navitoclax; first compound 4 µM): 0.525
- relative viability (Alpelisib + Pictilisib; first compound 0.04 µM): 0.499
- relative viability (Alpelisib + Pictilisib; first compound 0.1265 µM): 0.506
- relative viability (Alpelisib + Pictilisib; first compound 0.4 µM): 0.496
- relative viability (Alpelisib + Pictilisib; first compound 1.265 µM): 0.491
- relative viability (Alpelisib + Pictilisib; first compound 4 µM): 0.501

Cell Line: LCLC-97TM1
- relative viability (OSI-027 + Palbociclib; first compound 0.01 µM): 0.236
- relative viability (OSI-027 + Palbociclib; first compound 0.03162 µM): 0.205
- relative viability (OSI-027 + Palbociclib; first compound 0.1 µM): 0.217
- relative viability (OSI-027 + Palbociclib; first compound 0.3162 µM): 0.139
- relative viability (OSI-027 + Palbociclib; first compound 1 µM): 0.239
- relative viability (OSI-027 + Olaparib; first compound 0.01 µM): 0.59
- relative viability (OSI-027 + Olaparib; first compound 0.03162 µM): 0.438
- relative viability (OSI-027 + Olaparib; first compound 0.1 µM): 0.325
- relative viability (OSI-027 + Olaparib; first compound 0.3162 µM): 0.281
- relative viability (OSI-027 + Olaparib; first compound 1 µM): 0.347
- relative viability (Alpelisib + Navitoclax; first compound 0.04 µM): 0.411
- relative viability (Alpelisib + Navitoclax; first compound 0.1265 µM): 0.371
- relative viability (Alpelisib + Navitoclax; first compound 0.4 µM): 0.33
- relative viability (Alpelisib + Navitoclax; first compound 1.265 µM): 0.206
- relative viability (Alpelisib + Navitoclax; first compound 4 µM): 0.142
- relative viability (Alpelisib + Pictilisib; first compound 0.04 µM): 0.178
- relative viability (Alpelisib + Pictilisib; first compound 0.1265 µM): 0.175
- relative viability (Alpelisib + Pictilisib; first compound 0.4 µM): 0.179
- relative viability (Alpelisib + Pictilisib; first compound 1.265 µM): 0.195
- relative viability (Alpelisib + Pictilisib; first compound 4 µM): 0.21

Cell Line: NCI-H2405
- relative viability (OSI-027 + Palbociclib; first compound 0.01 µM): 0.509
- relative viability (OSI-027 + Palbociclib; first compound 0.03162 µM): 0.491
- relative viability (OSI-027 + Palbociclib; first compound 0.1 µM): 0.472
- relative viability (OSI-027 + Palbociclib; first compound 0.3162 µM): 0.401
- relative viability (OSI-027 + Palbociclib; first compound 1 µM): 0.34
- relative viability (OSI-027 + Olaparib; first compound 0.01 µM): 0.886
- relative viability (OSI-027 + Olaparib; first compound 0.03162 µM): 0.838
- relative viability (OSI-027 + Olaparib; first compound 0.1 µM): 0.823
- relative viability (OSI-027 + Olaparib; first compound 0.3162 µM): 0.694
- relative viability (OSI-027 + Olaparib; first compound 1 µM): 0.456
- relative viability (Alpelisib + Navitoclax; first compound 0.04 µM): 1.05
- relative viability (Alpelisib + Navitoclax; first compound 0.1265 µM): 0.894
- relative viability (Alpelisib + Navitoclax; first compound 0.4 µM): 0.798
- relative viability (Alpelisib + Navitoclax; first compound 1.265 µM): 0.596
- relative viability (Alpelisib + Navitoclax; first compound 4 µM): 0.789
- relative viability (Alpelisib + Pictilisib; first compound 0.04 µM): 0.443
- relative viability (Alpelisib + Pictilisib; first compound 0.1265 µM): 0.502
- relative viability (Alpelisib + Pictilisib; first compound 0.4 µM): 0.527
- relative viability (Alpelisib + Pictilisib; first compound 1.265 µM): 0.488
- relative viability (Alpelisib + Pictilisib; first compound 4 µM): 0.39

Cell Line: COR-L 105
- relative viability (OSI-027 + Palbociclib; first compound 0.01 µM): 0.393
- relative viability (OSI-027 + Palbociclib; first compound 0.03162 µM): 0.406
- relative viability (OSI-027 + Palbociclib; first compound 0.1 µM): 0.369
- relative viability (OSI-027 + Palbociclib; first compound 0.3162 µM): 0.389
- relative viability (OSI-027 + Palbociclib; first compound 1 µM): 0.423
- relative viability (OSI-027 + Olaparib; first compound 0.01 µM): 0.713
- relative viability (OSI-027 + Olaparib; first compound 0.03162 µM): 0.722
- relative viability (OSI-027 + Olaparib; first compound 0.1 µM): 0.726
- relative viability (OSI-027 + Olaparib; first compound 0.3162 µM): 0.571
- relative viability (OSI-027 + Olaparib; first compound 1 µM): 0.685
- relative viability (Alpelisib + Navitoclax; first compound 0.04 µM): 0.607
- relative viability (Alpelisib + Navitoclax; first compound 0.1265 µM): 0.633
- relative viability (Alpelisib + Navitoclax; first compound 0.4 µM): 0.728
- relative viability (Alpelisib + Navitoclax; first compound 1.265 µM): 0.615
- relative viability (Alpelisib + Navitoclax; first compound 4 µM): 0.554
- relative viability (Alpelisib + Pictilisib; first compound 0.04 µM): 0.39
- relative viability (Alpelisib + Pictilisib; first compound 0.1265 µM): 0.352
- relative viability (Alpelisib + Pictilisib; first compound 0.4 µM): 0.435
- relative viability (Alpelisib + Pictilisib; first compound 1.265 µM): 0.378
- relative viability (Alpelisib + Pictilisib; first compound 4 µM): 0.341
